Data: patent publication US11339161B2, “Triazolo pyridines as modulators of gamma-secretase” (Boehringer Ingelheim International GmbH, priority 2017, dated 2022)

tested on: 15 kinases (ABL1, AURKA, CDK5/p35, CSF1R, FGFR1, FGFR2, FLT4, KDR, LYN B, MAP4K2, MAP4K4, PDGFRA, PTK2, RET, RPS6KB1); assay: Z'-LYTE SelectScreen biochemical kinase panel: count of kinases inhibited over all 15 kinases tested; settings: 10 μmolar compound concentration; [ATP] Km app; out of 15 kinases tested

No. of kinases with >80% inhibition, 15/15:
CC1(C)C(=O)Nc2ccc(Nc3nc4c(-c5cccc(F)c5)cccn4n3)cc21 [Cpd. 263 in WO09155551, reference compound]
CC1(C)NC(=O)c2ccc(Nc3nc4c(-c5cccc(F)c5)cccn4n3)cc21 [Cpd. 302 in WO09155551, reference compound]
Fc1cccc(-c2cccn3nc(Nc4ccc5[nH]cnc5c4)nc23)c1 [Cpd. 293 in WO09155551, reference compound]
